Patent US6767708B1, “Stabilized aqueous steroid immunoassay standards” (Abbott Laboratories, priority 1994, dated 2004)

Assay: Stability of progesterone in charcoal stripped human serum stressed at 37° C. (percent loss by IMx Progesterone immunoassay)
Assay type: physicochemical
Details: for Reduction in % loss of progesterone over time by addition of chelator compared to no added reagent: days 0, 3, 8, 15 and 29, FIG. 1; for Percent loss of progesterone: 5 ng/mL progesterone in charcoal stripped human serum, after 29 days, relative to frozen aliquot
Procedure: Fifteen microliters (15 μL) of a serum sample were mixed with 80 μL of progesterone sample buffer, 80 μL of an anti-progesterone antibody coated microparticle suspension and 75 μL of IMx® Buffer. The reaction mixture was incubated for 20.8 minutes at 37° C. Progesterone sample buffer was an aqueous pH 2.8 solution of 2.25 M glycine, 0.5 μg/mL of 5-∝-dihydrotestosterone, 0.2% (w/v) saponin, 0.1 M sodium chloride and 0.1% methyl isothiazolinone (available from Rohm and Haas, Philadelphia, Pa.). The anti-progesterone antibody (available from University of Surry, Australia) coated microparticle suspension contained 0.001% solids (microparticles available from Seradyne, Indianapolis, Ind.) suspended in a buffer that was a pH 6.5 aqueous solution of 0.5 M morpholinoethanesulphonic acid (MES), 0.1 M sodium chloride, 10% sucrose, 2% bovine serum albumin (available from Intergen, Hawthorne, N.Y.), 0.1 mg/mL sheep IgG (50% ammonium sulfate cut of sheep serum obtained from Irvine Scientific, Santa Ana, Calif.) and 0.2% sodium azide.
One hundred seventy five microliters (175 μL) of the reaction mixture were transferred to the fiber matrix of an IMx® disposable cartridge. The microparticles were then washed with IMx® Buffer. Sixty microliters (60 μL) of 17-hydroxyprogesterone-3-(O-carboxymethyl)oxime alkaline phosphatase conjugate solution were added to the matrix, the reaction was incubated for 8 seconds at 37° C., and then washed again with IMx® Buffer. The conjugate solution contained 17-hydroxyprogesterone (available from Steraloids, Wilton, N.H.) coupled to alkaline phosphatase (available from Boehringer Mannheim, Germany) by means of the EDAC coupling procedure as described in U.S. Pat. No. 5,342,760. The conjugate solution was a pH 7.4 aqueous solution of 50 mM tris, 100 mM sodium chloride, 10 mM magnesium chloride, 0.1 mM zinc chloride, 0.5% casein (available from Sigma Chemical, St. Louis, Mo.) and 0.1% sodium azide containing sufficient conjugate to give a certain signal strength when utilized in an assay of sample free of analyte.
The addition of 4-methylumbelliferone phosphate and quantification of the rate of 4 methylumbelliferone formation was as described in Example 1. Using calibrators containing 0, 1, 4, 10, 20, and 40ng/mL of progesterone a standard curve was constructed.
Test samples were incubated at 37° C. and observed over a period of days or weeks.
Charcoal stripped human serum as prepared in Example 3 (non-alkaline shocked) (10 mL) was aliquoted into glass scintillation vials and various metal chelators were added to the following final concentrations:
Samples were incubated on a rocker for 12 min. at room temperature and then spiked to 5 ng/mL with 10 μg/mL progesterone (available from Sigma Chemical, Saint Louis, Mo.) prepared in an ethanol stock solution. Samples were assayed for baseline concentrations of progesterone following an 8 min. incubation on a rocker at room temperature. Four 1.0 mL aliquots of each composition were placed in TDx® microcentrifuge tubes (available from Abbott Laboratories, Abbott Park, Ill.) and stored frozen −20° C. The scintillation vials were incubated at 37° C. On the days indicated, aliquots were thawed and tested with the corresponding aliquots drawn from the vials stored at 37° C. to assess percent loss.
Percent loss (% loss) is an absolute determination of the loss of progesterone in the stressed sample relative to the frozen aliquot. […]

| Percent loss of progesterone (10 mM DETP) | Percent loss of progesterone (no reagent added) | Structure (SMILES) | Reduction in % loss of progesterone (ranking of chelators) (10 mM DETP, charcoal stripped human serum) | Reduction in % loss of progesterone over time by addition of chelator compared to no added reagent (charcoal stripped human serum) |
| --- | --- | --- | --- | --- |
|  |  | O=C(O)CN(CCN(CC(=O)O)CC(=O)O)CCN(CC(=O)O)CC(=O)O [DETP, diethylenetriaminepentaacetic acid] | most effective | reduction in % loss |
|  |  | O=C(O)CN(CCN(CC(=O)O)CC(=O)O)CC(=O)O [EDTA, ethylenediaminetetraacetic acid] |  | reduction in % loss |
| eliminated | ~80% | CC(=O)[C@H]1CC[C@H]2[C@@H]3CCC4=CC(=O)CC[C@]4(C)[C@H]3CC[C@]12C [progesterone] |  |  |
